Test results published in US20220289708A1, “SUBSTITUTED N-PHENYL URACILS, SALTS THEREOF AND THEIR USE AS HERBICIDAL AGENTS” (Bayer Aktiengesellschaft, priority 2019, published 2022).

Tests used:
Type in all cases: in vivo
Amaranthus retroflexus [1] = assay: Post-emergence herbicidal action; conditions: application rate 5 g/ha, rated visually after about 3 weeks vs untreated controls
Method in brief: (§1)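 Greenhouse-grown plants in sandy loam were sprayed at the one-leaf stage, 2 to 3 weeks after sowing, with compounds formulated as WP or EC in water plus 0.5% additive at 600 l/ha, at rates of 20 g/ha and less. Activity was scored visually after about 3 weeks against untreated controls (100% = dead).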

Pharbitis purpurea [2] = assay: Post-emergence herbicidal action; conditions: application rate 5 g/ha, rated visually after about 3 weeks vs untreated controls
Method in brief: as §1

Abutilon theophrasti [3] = assay: Post-emergence herbicidal action; conditions: application rate 5 g/ha, rated visually after about 3 weeks vs untreated controls
Method in brief: as §1

Digitaria sanguinalis [4] = assay: Post-emergence herbicidal action; conditions: rated visually after about 3 weeks vs untreated controls
Method in brief: as §1

Veronica persica [5] = assay: Post-emergence herbicidal action; conditions: application rate 5 g/ha
Method in brief: as §1

Echinochloa crus-galli [6] = assay: Post-emergence herbicidal action; conditions: application rate 5 g/ha, rated visually after about 3 weeks vs untreated controls
Method in brief: as §1

Amaranthus retroflexus [7] = assay: Pre-emergence herbicidal action; conditions: application rate 20 g/ha
Method in brief: (§2)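 Percentages are visual ratings against untreated controls, where 100% means dead plants and 0% means no difference. Compounds were applied at 80 g/ha or lower to the soil over freshly sown seeds, then pots stayed in the greenhouse about 3 weeks.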

Matricaria inodora [8] = assay: Pre-emergence herbicidal action; conditions: application rate 20 g/ha
Method in brief: as §2

Pharbitis purpurea [9] = assay: Pre-emergence herbicidal action
Method in brief: as §2

Lolium rigidum = assay: Pre-emergence herbicidal action; conditions: application rate 80 g/ha
Method in brief: as §2

Abutilon theophrasti [10] = assay: Pre-emergence herbicidal action; conditions: application rate 20 g/ha
Method in brief: as §2

Polygonum convolvulus [11] = assay: Pre-emergence herbicidal action; conditions: application rate 20 g/ha
Method in brief: as §2

Alopecurus myosuroides [12] = assay: Pre-emergence herbicidal action
Method in brief: as §2

Digitaria sanguinalis [13] = assay: Pre-emergence herbicidal action; conditions: application rate 20 g/ha
Method in brief: as §2

Veronica persica [14] = assay: Pre-emergence herbicidal action; conditions: application rate 20 g/ha
Method in brief: as §2

Viola tricolor [15] = assay: Pre-emergence herbicidal action; conditions: application rate 20 g/ha
Method in brief: as §2

Setaria viridis [16] = assay: Pre-emergence herbicidal action; conditions: application rate 20 g/ha
Method in brief: as §2

Echinochloa crus-galli [17] = assay: Pre-emergence herbicidal action
Method in brief: as §2

Avena fatua = assay: Pre-emergence herbicidal action
Method in brief: as §2

Triticum aestivum [18] = assay: Pre-emergence crop plant compatibility; conditions: application rate 20 g/ha
Method in brief: (§3)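 Crop seeds sown in pots and covered with soil; WP or EC formulations sprayed on the soil surface as aqueous suspension/emulsion with 0.5% additive at 600 l/ha water, 20 g/ha. Greenhouse-grown about 3 weeks, then damage scored visually as % versus untreated controls (100% = plants dead).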

Zea mays = assay: Pre-emergence crop plant compatibility; conditions: application rate 20 g/ha
Method in brief: as §3

Oryza sativa = assay: Post-emergence crop plant compatibility; conditions: application rate 5 g/ha
Method in brief: (§4)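 Greenhouse crop plants in sandy loam sprayed at one-leaf stage (2-3 weeks after sowing) with WP or EC formulations plus 0.5% additive, 600 l/ha water, at 5 g/ha or 20 g/ha. Damage scored visually after about 3 weeks as % versus untreated controls (100% = plants dead).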

Triticum aestivum [19] = assay: Post-emergence crop plant compatibility; conditions: application rate 5 g/ha
Method in brief: as §4

Glycine max = assay: Pre-emergence crop plant compatibility; conditions: application rate 20 g/ha, observed effect on crop vs untreated controls after about 3 weeks
Method in brief: as §3

Matricaria inodora [20] = assay: Post-emergence herbicidal action; conditions: application rate 5 g/ha, rated visually after about 3 weeks vs untreated controls
Method in brief: as §1

Polygonum convolvulus [21] = assay: Post-emergence herbicidal action; conditions: application rate 5 g/ha
Method in brief: as §1

Alopecurus myosuroides [22] = assay: Post-emergence herbicidal action; conditions: application rate 5 g/ha, rated visually after about 3 weeks vs untreated controls
Method in brief: as §1

Viola tricolor [23] = assay: Post-emergence herbicidal action; conditions: application rate 5 g/ha
Method in brief: as §1

Setaria viridis [24] = assay: Post-emergence herbicidal action; conditions: application rate 5 g/ha, rated visually after about 3 weeks vs untreated controls
Method in brief: as §1

Row | SMILES | Amaranthus retroflexus (efficacy in %) (Amaranthus retroflexus [1]) [%] | Pharbitis purpurea (efficacy in %) (Pharbitis purpurea [2]) [%] | Abutilon theophrasti (efficacy in %) (Abutilon theophrasti [3]) [%] | Digitaria sanguinalis (efficacy in %) (Digitaria sanguinalis [4]; application rate 5 g/ha) [%] | Veronica persica (efficacy in %) (Veronica persica [5]) [%] | Echinochloa crus-galli (efficacy in %) (Echinochloa crus-galli [6]) [%] | Amaranthus retroflexus (efficacy in %) (Amaranthus retroflexus [7]) [%] | Matricaria inodora (efficacy in %) (Matricaria inodora [8]) [%] | Pharbitis purpurea (efficacy in %) (Pharbitis purpurea [9]; application rate 20 g/ha) [%] | Lolium rigidum (efficacy in %) (Lolium rigidum) [%] | Abutilon theophrasti (efficacy in %) (Abutilon theophrasti [10]) [%] | Polygonum convolvulus (efficacy in %) (Polygonum convolvulus [11]) [%] | Digitaria sanguinalis (efficacy in %) (Digitaria sanguinalis [13]) [%] | Veronica persica (efficacy in %) (Veronica persica [14]) [%] | Viola tricolor (efficacy in %) (Viola tricolor [15]) [%] | Setaria viridis (efficacy in %) (Setaria viridis [16]) [%] | Avena fatua (efficacy in %) (Avena fatua; application rate 80 g/ha) [%] | Triticum aestivum (efficacy in %) (Triticum aestivum [18]) [%] | Oryza sativa (efficacy in %) (Oryza sativa) [%] | Triticum aestivum (efficacy in %) (Triticum aestivum [19]) [%] | other results
1 | Cn1c(C(F)(F)F)cc(=O)n(-c2cc(Oc3cccnc3OCC(=O)OCCOCc3ccccc3)c(Cl)cc2F)c1=O [I.15-6] | 100 | 100 | 100 | 100 | 100 | 100 | 100 | 100 | 100 | 100 | 100 | 100 | 100 | 100 | 100 | 100 | 100 | 10 | 20 | 20 | Alopecurus myosuroides (efficacy in %) (Alopecurus myosuroides [12]; application rate 20 g/ha): 90%; Echinochloa crus-galli (efficacy in %) (Echinochloa crus-galli [17]; application rate 80 g/ha): 100%; Zea mays (efficacy in %) (Zea mays): 0%
2 | Cn1c(C(F)(F)F)cc(=O)n(-c2cc(Oc3cccnc3OCC(=O)OCCOC(F)(F)F)c(Cl)cc2F)c1=O [I.15-41] | 100 | 100 | 100 | 100 | 100 | 100 | 100 | 100 | 100 | 100 | 100 | 100 | 100 | 100 | 100 | 100 | 90 |  | 20 | 20 | Alopecurus myosuroides (efficacy in %) (Alopecurus myosuroides [12]; application rate 80 g/ha): 100%; Echinochloa crus-galli (efficacy in %) (Echinochloa crus-galli [17]; application rate 80 g/ha): 100%; Glycine max (efficacy in %) (Glycine max): 20%
3 | COCCOCCOCCOCCOC(=O)COc1ncccc1Oc1cc(-n2c(=O)cc(C(F)(F)F)n(C)c2=O)c(F)cc1Cl [I.15-154] | 100 | 100 | 100 |  | 100 |  | 100 | 100 |  | 100 | 100 | 100 | 100 | 100 | 100 | 100 | 100 | 10 | 0 | 0 | Digitaria sanguinalis (efficacy in %) (Digitaria sanguinalis [4]; application rate 20 g/ha): 100%; Pharbitis purpurea (efficacy in %) (Pharbitis purpurea [9]; application rate 80 g/ha): 100%; Alopecurus myosuroides (efficacy in %) (Alopecurus myosuroides [12]; application rate 80 g/ha): 100%; Echinochloa crus-galli (efficacy in %) (Echinochloa crus-galli [17]; application rate 80 g/ha): 100%; Zea mays (efficacy in %) (Zea mays): 0%
4 | Cn1c(C(F)(F)F)cc(=O)n(-c2cc(Oc3cccnc3OCC(=O)OCC[Si](C)(C)C)c(Cl)cc2F)c1=O [I.15-211] | 100 | 80 | 100 | 100 | 100 | 100 | 100 | 100 | 80 | 100 | 100 | 100 | 100 | 100 | 100 | 100 | 80 | 0 | 0 | 0 | Alopecurus myosuroides (efficacy in %) (Alopecurus myosuroides [12]; application rate 80 g/ha): 100%; Echinochloa crus-galli (efficacy in %) (Echinochloa crus-galli [17]; application rate 20 g/ha): 80%; Zea mays (efficacy in %) (Zea mays): 20%
5 | Cn1c(C(F)(F)F)cc(=O)n(-c2cc(Oc3cccnc3OCC(=O)OCC3NC(=O)NC3=O)c(Cl)cc2F)c1=O (stereo not drawn) [I.15-280] | 100 | 100 | 100 | 100 | 100 | 80 | 100 | 100 | 90 | 100 | 100 | 100 | 100 | 100 | 100 | 100 |  | 10 |  | 20 | Matricaria inodora (efficacy in %) (Matricaria inodora [20]): 90%; Polygonum convolvulus (efficacy in %) (Polygonum convolvulus [21]): 100%; Alopecurus myosuroides (efficacy in %) (Alopecurus myosuroides [22]): 90%; Viola tricolor (efficacy in %) (Viola tricolor [23]): 100%; Setaria viridis (efficacy in %) (Setaria viridis [24]): 100%; Alopecurus myosuroides (efficacy in %) (Alopecurus myosuroides [12]; application rate 20 g/ha): 90%; Echinochloa crus-galli (efficacy in %) (Echinochloa crus-galli [17]; application rate 20 g/ha): 90%; Avena fatua (efficacy in %) (Avena fatua; application rate 20 g/ha): 80%; Glycine max (efficacy in %) (Glycine max): 0%
